pIC50: −log10 of the molar value.
Key:
[1] = target: Bromodomain-containing protein 4 (Homo sapiens, UniProt O60885); experiment: Inhibition of GST-tagged BRD4 bromodomain (unknown origin) using biotinylated histone H4KAc peptide (1 to 21 residues) as substrate by HTRF assay
HCT-116 = experiment: Antiproliferative activity against human HCT116 cells assessed as reduction in cell viability measured after 24 to 48 hrs by MTT assay; format: functional, cell-based
Histone deacetylase 2 = Histone deacetylase 2 (Homo sapiens, UniProt Q92769)
Sequence of Histone deacetylase 2 (Q92769 whole entry, the tested form may be a part): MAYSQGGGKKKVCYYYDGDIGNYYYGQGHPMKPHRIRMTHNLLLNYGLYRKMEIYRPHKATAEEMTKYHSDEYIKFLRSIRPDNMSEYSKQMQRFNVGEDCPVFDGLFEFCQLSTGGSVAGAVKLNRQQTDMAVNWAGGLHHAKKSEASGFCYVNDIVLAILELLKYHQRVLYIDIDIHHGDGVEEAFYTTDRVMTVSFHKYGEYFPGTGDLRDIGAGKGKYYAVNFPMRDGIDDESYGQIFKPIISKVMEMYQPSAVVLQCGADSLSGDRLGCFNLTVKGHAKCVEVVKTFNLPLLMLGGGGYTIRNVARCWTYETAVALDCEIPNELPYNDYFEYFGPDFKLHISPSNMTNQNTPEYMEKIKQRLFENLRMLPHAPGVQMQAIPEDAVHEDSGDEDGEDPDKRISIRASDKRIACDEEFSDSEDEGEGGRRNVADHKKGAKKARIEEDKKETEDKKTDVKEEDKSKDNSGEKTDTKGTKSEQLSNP

Histone deacetylase 7 = target: T1, Histone deacetylase 7 (Homo sapiens, UniProt Q8WUI4); experiment: Inhibition of HDAC7 (unknown origin) using biotinylated histone H3 KAc peptide (1 to 21 residues) as substrate by HTRF assay
T1 sequence (Q8WUI4 whole entry): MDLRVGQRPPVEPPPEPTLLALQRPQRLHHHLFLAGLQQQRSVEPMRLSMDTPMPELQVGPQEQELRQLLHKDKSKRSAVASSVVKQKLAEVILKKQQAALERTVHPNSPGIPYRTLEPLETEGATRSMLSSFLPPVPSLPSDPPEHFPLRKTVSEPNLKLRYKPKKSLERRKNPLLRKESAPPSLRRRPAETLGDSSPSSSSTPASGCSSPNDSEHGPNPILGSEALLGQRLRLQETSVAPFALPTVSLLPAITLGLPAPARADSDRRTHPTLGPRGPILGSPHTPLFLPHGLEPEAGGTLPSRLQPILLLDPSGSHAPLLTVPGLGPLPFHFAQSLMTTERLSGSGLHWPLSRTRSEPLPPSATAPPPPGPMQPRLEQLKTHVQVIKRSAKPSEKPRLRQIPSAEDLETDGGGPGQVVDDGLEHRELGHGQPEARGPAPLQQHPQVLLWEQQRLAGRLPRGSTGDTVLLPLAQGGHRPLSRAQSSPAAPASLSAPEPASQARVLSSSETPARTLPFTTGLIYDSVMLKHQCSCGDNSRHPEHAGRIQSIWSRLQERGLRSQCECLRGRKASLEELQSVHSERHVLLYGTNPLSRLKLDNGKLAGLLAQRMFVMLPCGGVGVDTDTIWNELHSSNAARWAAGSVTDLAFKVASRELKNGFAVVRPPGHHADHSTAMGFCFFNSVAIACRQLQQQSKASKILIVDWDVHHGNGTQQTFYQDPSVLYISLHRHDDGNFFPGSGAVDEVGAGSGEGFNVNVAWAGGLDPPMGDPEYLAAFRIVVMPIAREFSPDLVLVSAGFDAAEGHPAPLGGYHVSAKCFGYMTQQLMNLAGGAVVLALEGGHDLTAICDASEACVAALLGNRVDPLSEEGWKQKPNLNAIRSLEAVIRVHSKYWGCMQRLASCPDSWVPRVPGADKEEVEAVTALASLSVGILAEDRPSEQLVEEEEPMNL

DLD-1 = experiment: Antiproliferative activity against human DLD1 cells assessed as reduction in cell viability measured after 24 to 48 hrs by MTT assay; format: functional, cell-based
SW-620 = experiment: Antiproliferative activity against human SW620 cells assessed as reduction in cell viability measured after 24 to 48 hrs by MTT assay; format: functional, cell-based
[2] = target: T2, Protein deacetylase HDAC6 (Homo sapiens, UniProt Q9UBN7); experiment: Inhibition of HDAC6 (unknown origin) using biotinylated histone H3 KAc peptide (1 to 21 residues) as substrate by HTRF assay
T2 sequence (Q9UBN7 whole entry): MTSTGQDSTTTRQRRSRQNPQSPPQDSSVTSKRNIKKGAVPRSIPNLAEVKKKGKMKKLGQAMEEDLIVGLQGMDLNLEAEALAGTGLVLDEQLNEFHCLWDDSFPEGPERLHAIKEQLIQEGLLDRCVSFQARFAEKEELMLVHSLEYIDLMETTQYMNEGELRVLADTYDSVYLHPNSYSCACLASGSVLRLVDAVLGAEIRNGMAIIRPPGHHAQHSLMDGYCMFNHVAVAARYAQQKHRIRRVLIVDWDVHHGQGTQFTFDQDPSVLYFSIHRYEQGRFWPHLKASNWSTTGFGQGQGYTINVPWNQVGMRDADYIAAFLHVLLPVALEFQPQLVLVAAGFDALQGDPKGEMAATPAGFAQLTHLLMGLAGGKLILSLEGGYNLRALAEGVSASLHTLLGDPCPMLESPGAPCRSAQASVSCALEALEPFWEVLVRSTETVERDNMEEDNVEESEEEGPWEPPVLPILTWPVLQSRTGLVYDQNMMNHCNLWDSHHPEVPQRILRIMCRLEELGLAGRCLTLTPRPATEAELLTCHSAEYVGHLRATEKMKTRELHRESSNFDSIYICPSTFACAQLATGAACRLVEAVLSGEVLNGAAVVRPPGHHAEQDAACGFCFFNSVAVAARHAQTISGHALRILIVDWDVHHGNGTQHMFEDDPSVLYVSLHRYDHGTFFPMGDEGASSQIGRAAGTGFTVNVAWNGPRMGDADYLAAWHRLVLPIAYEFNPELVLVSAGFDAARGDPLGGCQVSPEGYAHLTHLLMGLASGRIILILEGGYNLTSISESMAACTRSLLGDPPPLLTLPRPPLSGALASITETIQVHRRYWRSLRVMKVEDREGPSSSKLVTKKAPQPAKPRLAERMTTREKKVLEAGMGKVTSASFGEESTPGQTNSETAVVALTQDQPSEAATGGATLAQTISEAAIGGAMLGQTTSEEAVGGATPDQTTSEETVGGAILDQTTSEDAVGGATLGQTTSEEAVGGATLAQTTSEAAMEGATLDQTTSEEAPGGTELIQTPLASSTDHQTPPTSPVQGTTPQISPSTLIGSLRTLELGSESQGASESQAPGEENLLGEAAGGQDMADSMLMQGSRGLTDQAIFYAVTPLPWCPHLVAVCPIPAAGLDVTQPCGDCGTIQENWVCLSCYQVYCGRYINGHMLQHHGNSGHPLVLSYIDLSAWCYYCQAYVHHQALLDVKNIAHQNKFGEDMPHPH

Row | Compound | pIC50 [1] | pIC50 (HCT-116) | pIC50 (Histone deacetylase 2) | pIC50 (Histone deacetylase 7) | pIC50 (DLD-1) | pIC50 (SW-620) | pIC50 [2]
1 | CCN1CCc2c(sc3nc(-c4cc(C)c(O)c(C)c4)[nH]c(=O)c23)C1 | 5.25 | 5.05 |  |  |  |  | 
2 | Cc1cc(-c2nc3sc4c(c3c(=O)[nH]2)CCN(C)C4)cc(C)c1OCc1cccc(C(=O)NO)c1 | 5.71 | 5.26 | 6.60 | < 5.00 | 5.04 | 5.11 | 6.11
3 | CCN1CCc2c(sc3nc(-c4ccc(O)cc4)[nH]c(=O)c23)C1 | < 5.00 | < 5.00 |  |  |  |  | 
4 | Cc1cc(-c2nc3sc4c(c3c(=O)[nH]2)CCN(Cc2ccccc2)C4)cc(C)c1O | < 5.00 | < 5.00 |  |  |  |  | 
5 | Cc1cc(-c2nc3sc4c(c3c(=O)[nH]2)CCN(C)C4)cc(C)c1OCc1ccc(C(=O)Nc2ccccc2N)cc1 | 5.59 | 5.36 | 6.85 | < 5.00 | < 5.00 | 5.26 | < 5.00
6 | CN1CCc2c(sc3nc(-c4ccc(O)cc4)[nH]c(=O)c23)C1 | 5.20 | 5.06 |  |  |  |  | 
7 | Cc1cc(-c2nc3sc4c(c3c(=O)[nH]2)CCCC4)cc(C)c1O | 5.74 | 5.27 |  |  |  |  | 
8 | Cc1noc(C)c1-c1nc2sc3c(c2c(=O)[nH]1)CCN(CCCC(=O)NO)C3 | < 5.00 | 4.74 | 6.55 | < 5.00 | 4.71 | 5.01 | 6.33
9 | CCN1CCc2c(sc3nc(-c4cc(C)cc(C)c4)[nH]c(=O)c23)C1 | < 5.00 | < 5.00 |  |  |  |  | 
10 | Cc1cc(-c2nc3sc4c(c3c(=O)[nH]2)CCN(C)C4)cc(C)c1OCCOCc1ccc(/C=C/C(=O)NO)cc1 | 6.01 | 6.16 | 7.07 | < 5.00 | 5.52 | 5.41 | 6.80
11 | O=c1[nH]c(-c2ccccc2)nc2sc3c(c12)CCC3 | < 5.00 | < 5.00 |  |  |  |  | 
12 | Cc1cc(C)cc(-c2nc3sc4c(c3c(=O)[nH]2)CCC4)c1 | < 5.00 | < 5.00 |  |  |  |  | 
13 | Cc1noc(C)c1-c1nc2sc3c(c2c(=O)[nH]1)CCN(CCCCCC(=O)NO)C3 | < 5.00 | 4.82 | 6.87 | < 5.00 | 4.77 | 5.07 | 6.81
14 | Cc1noc(C)c1-c1nc2sc3c(c2c(=O)[nH]1)CCN(CC(=O)Nc1ccccc1N)C3 | < 5.00 | 4.55 | 6.45 | < 5.00 | 4.82 | 4.82 | 6.41
15 | Cc1noc(C)c1-c1nc2sc3c(c2c(=O)[nH]1)CCN(C)C3 | 5.62 | 5.01 |  |  |  |  | 
16 | Cc1cc(-c2nc3sc4c(c3c(=O)[nH]2)CCN(C)C4)cc(C)c1OCCCC(=O)NO | 5.93 | 5.68 | 6.80 | < 5.00 | 5.01 | 5.42 | 6.60
17 | COC(=O)CN1CCc2c(sc3nc(-c4c(C)noc4C)[nH]c(=O)c23)C1 | 5.18 | 4.79 |  |  |  |  | 
18 | Cc1cc(C)cc(-c2nc3sc4c(c3c(=O)[nH]2)CCCC4)c1 | < 5.00 | < 5.00 |  |  |  |  | 

Row | Compound | pIC50 [1] | pIC50 (HCT-116) | pIC50 (Histone deacetylase 2) | pIC50 (Histone deacetylase 7) | pIC50 (DLD-1) | pIC50 (SW-620) | pIC50 [2]
19 | O=c1[nH]c(-c2ccc(O)cc2)nc2sc3c(c12)CCC3 | 5.03 | < 5.00 |  |  |  |  | 
20 | Cc1cc(-c2nc3sc4c(c3c(=O)[nH]2)CCC4)cc(C)c1O | 5.58 | 5.31 |  |  |  |  | 
21 | Cc1cc(C)cc(-c2nc3sc4c(c3c(=O)[nH]2)CCN(C)C4)c1 | < 5.00 | < 5.00 |  |  |  |  | 
22 | O=c1[nH]c(-c2ccccc2)nc2sc3c(c12)CCN(Cc1ccccc1)C3 | < 5.00 | < 5.00 |  |  |  |  | 
23 | Cc1cc(C)cc(-c2nc3sc4c(c3c(=O)[nH]2)CCN(Cc2ccccc2)C4)c1 | < 5.00 | < 5.00 |  |  |  |  | 
24 | Cc1cc(-c2nc3sc4c(c3c(=O)[nH]2)CCN(C)C4)cc(C)c1OCCCCCC(=O)Nc1ccccc1N | 5.66 | 5.16 | 6.77 | < 5.00 | < 5.00 | 5.01 | < 5.00
25 | Cc1noc(C)c1-c1nc2sc3c(c2c(=O)[nH]1)CCN(CCCCCC(=O)Nc1ccccc1N)C3 | < 5.00 | 4.82 | 6.95 | < 5.00 | 4.83 | 4.96 | 6.71
26 | Cc1cc(-c2nc3sc4c(c3c(=O)[nH]2)CCN(CCCCCC(=O)NO)C4)cc(C)c1O | < 5.00 | < 5.00 | 6.87 | < 5.00 | < 5.00 | 4.80 | 6.89
27 | Cc1cc(-c2nc3sc4c(c3c(=O)[nH]2)CCN(C)C4)cc(C)c1OCc1cccc(C(=O)Nc2ccccc2N)c1 | 5.46 | 5.34 | 6.07 | < 5.00 | < 5.00 | < 5.00 | < 5.00
28 | CCN1CCc2c(sc3nc(-c4ccccc4)[nH]c(=O)c23)C1 | < 5.00 | < 5.00 |  |  |  |  | 
29 | Cc1cc(-c2nc3sc4c(c3c(=O)[nH]2)CCN(C)C4)cc(C)c1OCc1ccc(/C=C/C(=O)NO)cc1 | 5.92 | 6.04 | 7.01 | < 5.00 | 5.44 | 5.63 | 6.69
30 | O=c1[nH]c(-c2ccc(O)cc2)nc2sc3c(c12)CCN(Cc1ccccc1)C3 | < 5.00 | < 5.00 |  |  |  |  | 
31 | COC(=O)CCCN1CCc2c(sc3nc(-c4c(C)noc4C)[nH]c(=O)c23)C1 | 5.23 | 4.90 |  |  |  |  | 
32 | Oc1nc(-c2ccccc2)nc2sc3c(c12)CCCC3 | < 5.00 | < 5.00 |  |  |  |  | 
33 | CN1CCc2c(sc3nc(-c4ccccc4)[nH]c(=O)c23)C1 | < 5.00 | < 5.00 |  |  |  |  | 
34 | COC(=O)CCCCCN1CCc2c(sc3nc(-c4c(C)noc4C)[nH]c(=O)c23)C1 | 5.44 | 4.77 |  |  |  |  | 
35 | Cc1cc(-c2nc3sc4c(c3c(=O)[nH]2)CCN(C)C4)cc(C)c1OCc1ccc(C(=O)NO)cc1 | 5.75 | 5.97 | 6.98 | < 5.00 | 5.20 | 5.41 | 6.73
36 | O=c1[nH]c(-c2ccc(O)cc2)nc2sc3c(c12)CCCC3 | 5.24 | 5.01 |  |  |  |  | 
